These results are taken from patent US20260317344A1, “EGFR INHIBITORS FOR TREATING DISEASE” (BLOSSOMHILL THERAPEUTICS, INC., priority 2023, published 2026).

Format in all cases: cell-based
For assay [1], the system named is NCI-H1975 cells. The assay can be described thus: 5-Day CellTiter Glo (CTG) cell proliferation assay, NCI-H1975. The note with it: Homo sapiens; NCI-H1975 cells (L858R/T790M EGFR), 5-day CTG proliferation, 120 hours; read-out: H1975 IC50. Put shortly: (§1)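 Luminescent ATP signal (CellTiter-Glo 2.0) after 120 hours of compound exposure gave IC50 values. PC-9 and HCC827 harbour EGFR d746-750; NCI-H1975 harbours L858R/T790M.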

Assay [2] concerns BaF3 cells with engineered EGFR L858R/T790M/C797S. The assay can be described thus: 3-Day CellTiter Glo (CTG) cell proliferation assay, BaF3 EGFR L858R/T790M/C797S. The note with it: Mus musculus, 3-day CTG proliferation, 72 hours. As to the method: (§2) 3-DAY CellTiter Glo (CTG) Cell Proliferation Assays (BaF3 Cell Lines)
(§3) Cell proliferation assays were carried out in BaF3 cells engineered with EGFR mutations. BaF3 cells with engineered EGFR L858R/T790M/C797S, EGFR L858R/C797S, or EGFR d746-750/T790M transgene, one thousand cells/50 μL per well were seeded in white 384-well plate, followed by treatment with indicated compounds in a 9-dose dilution series using TECAN d300e liquid dispenser. Cells were incubated with compounds for 72 hours at 37° C. and 5% CO2. Cell proliferation was measured using CellTiter-Gbo 2.0 luciferase-based ATP detection assay (Promega, Madison, WI) at 18 μL per well following the manufacturer's protocol. Plates were then read on a TECAN Sparks multimode microplate reader. Data was analyzed using GraphPad Prism 9 (GraphiPad Software, San Diego, CA) to obtain IC50 values.

The test system of assay [3] is BaF3 cells with engineered EGFR d746-750/T790M. The assay can be described thus: 3-Day CellTiter Glo (CTG) cell proliferation assay, BaF3 EGFR d746-750/T790M. The note with it: Mus musculus; BaF3 EGFR d746-750/T790M cells, 3-day CTG proliferation, 72 hours. The method, then:
as §2, §3

The target of assay [4] is T1, pEGFR, A431 cells (wildtype EGFR) (Homo sapiens, UniProt P00533).
T1 construct: pEGFR (Tyr1068) TR-FRET
The assay can be described thus: Cellular EGFR phosphorylation assay (LANCE Ultra TR-FRET) in A431 cells. The conditions noted are these: 4 hours at 37° C., 40 ng/mL EGF for the final 10 minutes, read-out: A431 pEGFR IC50. In a few lines:
(§4)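 Phospho-EGFR (Tyr1068) measured by TR-FRET in lysates after 4 h compound exposure at 37° C (9 doses, 3-fold steps). A431 cells, seeded at 30 thousand per well, received 40 ng/mL EGF for the last 10 min; PC-9 and NCI-H1975 seeded at 50 thousand per well, unstimulated. IC50 values reported.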

Assay [5] has as its system PC-9 cells. Briefly: 5-Day CellTiter Glo (CTG) cell proliferation assay, PC-9. The conditions noted are these: Homo sapiens; PC-9 cells (d746-750 EGFR), 5-day CTG proliferation, 120 hours; read-out: PC-9 IC50. Put shortly: as §1
Assay [6] concerns BaF3 cells with engineered EGFR L858R/C797S. Briefly: 3-Day CellTiter Glo (CTG) cell proliferation assay, BaF3 EGFR L858R/C797S. The conditions noted are these: Mus musculus, 3-day CTG proliferation, 72 hours. As to the method: as §2, §3
The target in assay [7] is T2, pEGFR, PC-9 cells (d746-750 EGFR) (Homo sapiens, UniProt P00533, DEL746-750).
T2 construct: pEGFR (Tyr1068) TR-FRET
Briefly: Cellular EGFR phosphorylation assay (LANCE Ultra TR-FRET) in PC-9 cells. The conditions noted are these: 4 hours at 37° C., read-out: PC-9 pEGFR IC50. In a few lines: as §4

Assay [8] concerns HCC827 cells. The assay can be described thus: 5-Day CellTiter Glo (CTG) cell proliferation assay, HCC827. The note with it: Homo sapiens; HCC827 cells (d746-750 EGFR), 5-day CTG proliferation, 120 hours; read-out: HCC827 IC50. Put shortly: as §1
The target in assay [9] is T3, pEGFR, NCI-H1975 cells (L858R/T790M EGFR) (Homo sapiens, UniProt P00533, L858R/T790M).
T3 construct: pEGFR (Tyr1068) TR-FRET
The assay can be described thus: Cellular EGFR phosphorylation assay (LANCE Ultra TR-FRET) in NCI-H1975 cells. The conditions noted are these: 4 hours at 37° C., read-out: H1975 pEGFR IC50. In a few lines:
as §4

T3 sequence (P00533 25-1210 T790M/L858R): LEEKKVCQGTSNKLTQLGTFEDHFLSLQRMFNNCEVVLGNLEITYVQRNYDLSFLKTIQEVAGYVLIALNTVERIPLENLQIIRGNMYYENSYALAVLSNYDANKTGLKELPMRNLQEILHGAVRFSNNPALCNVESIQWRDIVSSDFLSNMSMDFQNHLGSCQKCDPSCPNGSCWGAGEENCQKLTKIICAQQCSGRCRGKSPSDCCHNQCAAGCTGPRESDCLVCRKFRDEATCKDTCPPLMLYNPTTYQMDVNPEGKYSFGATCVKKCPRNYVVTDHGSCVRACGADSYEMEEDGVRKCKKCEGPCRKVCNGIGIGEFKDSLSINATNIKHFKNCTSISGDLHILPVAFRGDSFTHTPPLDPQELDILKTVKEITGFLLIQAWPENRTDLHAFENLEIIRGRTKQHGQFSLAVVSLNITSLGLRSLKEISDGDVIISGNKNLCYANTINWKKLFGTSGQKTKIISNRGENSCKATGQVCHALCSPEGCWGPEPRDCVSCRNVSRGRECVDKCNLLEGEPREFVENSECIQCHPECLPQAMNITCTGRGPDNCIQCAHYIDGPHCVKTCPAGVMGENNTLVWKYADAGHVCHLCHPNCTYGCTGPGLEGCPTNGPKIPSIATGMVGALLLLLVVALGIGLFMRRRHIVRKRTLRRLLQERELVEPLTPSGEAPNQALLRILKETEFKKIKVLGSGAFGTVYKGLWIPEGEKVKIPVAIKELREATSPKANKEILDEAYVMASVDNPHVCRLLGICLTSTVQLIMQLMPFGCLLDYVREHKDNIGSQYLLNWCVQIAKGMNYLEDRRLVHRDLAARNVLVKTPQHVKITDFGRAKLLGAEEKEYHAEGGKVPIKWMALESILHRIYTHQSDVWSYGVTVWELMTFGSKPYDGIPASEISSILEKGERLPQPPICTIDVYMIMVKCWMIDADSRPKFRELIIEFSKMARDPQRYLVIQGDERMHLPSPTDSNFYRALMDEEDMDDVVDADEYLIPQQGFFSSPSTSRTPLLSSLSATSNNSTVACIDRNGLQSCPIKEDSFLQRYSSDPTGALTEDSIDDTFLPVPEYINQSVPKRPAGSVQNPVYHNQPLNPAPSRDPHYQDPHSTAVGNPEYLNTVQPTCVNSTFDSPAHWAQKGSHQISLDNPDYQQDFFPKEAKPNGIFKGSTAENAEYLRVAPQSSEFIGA
T1 sequence (P00533 25-1210): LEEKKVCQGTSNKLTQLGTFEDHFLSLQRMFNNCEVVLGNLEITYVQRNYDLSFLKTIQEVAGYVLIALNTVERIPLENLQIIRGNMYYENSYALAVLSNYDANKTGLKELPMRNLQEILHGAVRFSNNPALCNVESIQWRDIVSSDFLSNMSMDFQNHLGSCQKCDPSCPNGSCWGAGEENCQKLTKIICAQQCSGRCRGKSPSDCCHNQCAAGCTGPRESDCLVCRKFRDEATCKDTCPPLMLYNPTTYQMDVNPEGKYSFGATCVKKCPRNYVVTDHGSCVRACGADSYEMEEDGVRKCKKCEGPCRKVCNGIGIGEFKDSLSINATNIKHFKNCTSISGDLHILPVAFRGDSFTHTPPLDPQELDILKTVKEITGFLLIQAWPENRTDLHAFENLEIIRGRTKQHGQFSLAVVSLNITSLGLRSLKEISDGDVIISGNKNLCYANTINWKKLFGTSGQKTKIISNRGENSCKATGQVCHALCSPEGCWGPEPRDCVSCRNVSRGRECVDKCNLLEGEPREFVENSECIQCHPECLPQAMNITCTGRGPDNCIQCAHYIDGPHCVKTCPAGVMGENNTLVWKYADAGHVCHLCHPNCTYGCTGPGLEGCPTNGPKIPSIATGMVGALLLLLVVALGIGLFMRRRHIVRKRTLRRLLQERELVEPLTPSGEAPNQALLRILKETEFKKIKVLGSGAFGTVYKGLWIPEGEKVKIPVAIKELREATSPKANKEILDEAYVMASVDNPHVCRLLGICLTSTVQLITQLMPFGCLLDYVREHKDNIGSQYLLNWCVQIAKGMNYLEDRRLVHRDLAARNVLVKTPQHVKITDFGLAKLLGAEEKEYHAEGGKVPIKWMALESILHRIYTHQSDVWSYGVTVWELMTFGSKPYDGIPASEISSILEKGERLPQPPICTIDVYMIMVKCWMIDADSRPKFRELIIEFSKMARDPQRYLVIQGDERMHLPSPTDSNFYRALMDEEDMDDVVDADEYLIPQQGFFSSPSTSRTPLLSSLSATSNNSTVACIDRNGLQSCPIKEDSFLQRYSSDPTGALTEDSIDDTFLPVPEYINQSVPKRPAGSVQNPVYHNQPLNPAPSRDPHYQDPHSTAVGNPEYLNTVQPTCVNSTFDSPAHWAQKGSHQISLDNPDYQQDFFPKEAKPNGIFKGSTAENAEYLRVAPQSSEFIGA
T2 sequence (P00533 with tags, fused parts or gaps DEL746-750): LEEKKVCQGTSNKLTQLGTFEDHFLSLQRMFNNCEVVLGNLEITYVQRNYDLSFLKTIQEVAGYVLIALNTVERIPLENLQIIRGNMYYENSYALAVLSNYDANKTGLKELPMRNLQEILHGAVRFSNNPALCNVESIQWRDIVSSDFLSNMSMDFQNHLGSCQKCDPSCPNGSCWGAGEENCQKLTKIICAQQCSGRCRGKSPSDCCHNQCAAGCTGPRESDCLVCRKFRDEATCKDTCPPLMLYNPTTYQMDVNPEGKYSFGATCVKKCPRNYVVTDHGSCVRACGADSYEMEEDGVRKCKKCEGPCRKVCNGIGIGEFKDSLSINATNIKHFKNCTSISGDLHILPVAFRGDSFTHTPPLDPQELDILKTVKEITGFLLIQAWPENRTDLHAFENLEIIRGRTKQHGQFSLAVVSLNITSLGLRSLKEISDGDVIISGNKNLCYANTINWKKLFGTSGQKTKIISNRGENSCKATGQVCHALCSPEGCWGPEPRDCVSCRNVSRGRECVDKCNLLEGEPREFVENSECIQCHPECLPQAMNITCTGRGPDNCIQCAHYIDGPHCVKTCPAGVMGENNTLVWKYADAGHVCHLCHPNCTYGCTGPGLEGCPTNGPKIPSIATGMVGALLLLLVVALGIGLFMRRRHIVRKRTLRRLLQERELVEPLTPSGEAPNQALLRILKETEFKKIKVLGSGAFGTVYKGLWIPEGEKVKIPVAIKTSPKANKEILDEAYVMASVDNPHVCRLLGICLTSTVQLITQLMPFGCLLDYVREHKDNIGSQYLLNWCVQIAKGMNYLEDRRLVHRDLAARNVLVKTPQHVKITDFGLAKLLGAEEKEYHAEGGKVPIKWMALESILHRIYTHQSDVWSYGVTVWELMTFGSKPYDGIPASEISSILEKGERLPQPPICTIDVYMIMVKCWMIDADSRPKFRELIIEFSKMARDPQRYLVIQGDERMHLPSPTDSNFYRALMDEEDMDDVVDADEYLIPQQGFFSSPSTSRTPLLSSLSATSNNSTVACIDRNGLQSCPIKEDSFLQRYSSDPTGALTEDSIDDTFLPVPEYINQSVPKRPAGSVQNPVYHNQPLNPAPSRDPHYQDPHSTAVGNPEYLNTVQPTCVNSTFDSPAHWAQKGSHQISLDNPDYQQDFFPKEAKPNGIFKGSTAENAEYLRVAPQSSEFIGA

Consider `CCOc1nn(CCO)c2c1/C=C/c1n[nH]c3c(C)nc(cc13)-c1c(C)nn(C)c1OCCN(C)C2` [Ex. 75, 2-[(17E)-16-ethoxy-6,8,12,20-tetramethyl-2,8,10,11,12,13-hexahydro-14H-5,3-(azenometheno)tripyrazolo[3,4-f:3′,4′-j:4″,3″-n][1,4]oxazacyclopentadecin-14-yl]ethan-1-ol], for which the IC50 in assay [1] came to 74 nM; in assay [2] it was 2.94 nM; in [3] it was 203 nM; in assay [4], 53.7 nM; in assay [5], 43.1 nM; in assay [6], 0.22 nM. In addition, the half-inhibitory concentration (IC50) is 15 nM in [7], 10.6 nM in [8] and 7.41 nM in assay [9].
Regarding `CCOc1nn([C@@H](C)CO)c2c1/C=C/c1n[nH]c3cnc(cc13)-c1c(CC)nn(C)c1O[C@@H](C)CN(C)C2` [Ex. 82, (2S)-2-[(10S,17E)-16-ethoxy-6-ethyl-8,10,12-trimethyl-2,8,10,11,12,13-hexahydro-14H-5,3-(azenometheno)tripyrazolo[3,4-f:3′,4′-j:4″,3″-n][1,4]oxazacyclopentadecin-14-yl]propan-1-ol], the IC50 turned out to be 207 nM in [1]; 4.4 nM in assay [2]; 66.3 nM in assay [3]; 24.7 nM in assay [4]; 1.54 nM in assay [5]; 0.12 nM in [6]. For the same compound, the figures for the IC50 in assay [7], in assay [8] and in assay [9] were 2.35 nM, 0.85 nM and 15 nM, respectively.
Take `CCOc1nn(C[C@H](C)O)c2c1/C=C/c1n[nH]c3cnc(cc13)-c1c(C)nn(C)c1O[C@@H](C)CN(C)C2` [Ex. 86, (2S)-1-[(10S,17E)-16-ethoxy-6,8,10,12-tetramethyl-2,8,10,11,12,13-hexahydro-14H-5,3-(azenometheno)tripyrazolo[3,4-f:3′,4′-j:4″,3″-n][1,4]oxazacyclopentadecin-14-yl]propan-2-ol]: the IC50 in [1] worked out at 1.11 nM; in assay [2], 0.54 nM; in assay [3], 0.69 nM; in assay [4], 7.67 nM; in assay [5] it was 0.68 nM; in assay [6], 0.04 nM. Further, the half-maximal inhibitory concentration (IC50) in assay [7] was found to be 1.09 nM; in [8], 0.3 nM; in [9], 1.57 nM.
In the case of `CCOc1nn([C@H](C)CO)c2c1/C=C/c1n[nH]c3cnc(cc13)-c1c(C)nn(C)c1O[C@@H](C)CN(C)C2` [Ex. 88, (2R)-2-[(10S,17E)-16-ethoxy-6,8,10,12-tetramethyl-2,8,10,11,12,13-hexahydro-14H-5,3-(azenometheno)tripyrazolo[3,4-f:3′,4′-j:4″,3″-n][1,4]oxazacyclopentadecin-14-yl]propan-1-ol], the IC50 was 5.09 nM in assay [1]; 0.86 nM in assay [2]; 1.56 nM in assay [3]; 11 nM in [4]; 2.52 nM in [5]; 0.09 nM in [6]. Also, the figures for the IC50 in assay [7], in assay [8] and in assay [9] were 1.62 nM, 0.39 nM and 2.17 nM, respectively.
Take `CCOc1nn([C@H](C)CO)c2c1/C=C/c1n[nH]c3cnc(cc13)-c1c(C)nn(C)c1O[C@H](C)CN(C)C2` [Ex. 89, (2R)-2-[(10R,17E)-16-ethoxy-6,8,10,12-tetramethyl-2,8,10,11,12,13-hexahydro-14H-5,3-(azenometheno)tripyrazolo[3,4-f:3′,4′-j:4″,3″-n][1,4]oxazacyclopentadecin-14-yl]propan-1-ol]: the half-inhibitory concentration (IC50) in assay [1] is 125 nM; in [2] it was 20.8 nM; in assay [3] it was 43.3 nM; in [4] it was 34.3 nM; in assay [5], 35.3 nM; in assay [6] it was 3.84 nM. Besides, the IC50 in [7] was found to be 16.1 nM; in assay [8], 11 nM; in [9], 48.1 nM.
As to `CCOc1nn(C[C@H](C)O)c2c1/C=C/c1n[nH]c3c(C)nc(cc13)-c1c(C)nn(C)c1O[C@@H](C)CN(C)C2` [Ex. 90, (2S)-1-[(10S,17E)-16-ethoxy-6,8,10,12,20-pentamethyl-2,8,10,11,12,13-hexahydro-14H-5,3-(azenometheno)tripyrazolo[3,4-f3′,4′-j:4″,3″-n][1,4]oxazacyclopentadecin-14-yl]propan-2-ol], the half-maximal inhibitory concentration (IC50) turned out to be 0.97 nM in assay [1]; 0.48 nM in assay [2]; 0.61 nM in [3]; 8.44 nM in assay [4]; 2.37 nM in assay [5]; 0.06 nM in [6]. The results for the IC50 in [7], in assay [8] and in [9] were 1.26 nM, 0.58 nM and 1.1 nM, respectively.
Take `CCOc1nn([C@@H](C)CO)c2c1/C=C/c1n[nH]c3c(C)nc(cc13)-c1c(C)nn(C)c1O[C@@H](C)CNC2` [Ex. 91, (2S)-2-[(10S,17E)-16-ethoxy-6,8,10,20-tetramethyl-2,8,10,11,12,13-hexahydro-14H-5,3-(azenometheno)tripyrazolo[3,4-f:3′,4′-j:4″,3″-n][1,4]oxazacyclopentadecin-14-yl]propan-1-ol]: the IC50 was determined as 57 nM in assay [1]; 17.2 nM in assay [2]; 45.7 nM in assay [3]; 34.8 nM in assay [4]; 63 nM in assay [5]; 9.29 nM in [6]. Besides, the half-maximal inhibitory concentration (IC50) worked out at 69.5 nM in assay [7], 16.8 nM in assay [8] and 21.3 nM in [9].
Consider `CCOc1nn(CCO)c2c1/C=C/c1n[nH]c3cnc(cc13)-c1c(cnn1C)OCCN(C)C2` [Ex. 104, 2-[(17E)-16-ethoxy-6,12-dimethyl-2,6,10,11,12,13-hexahydro-14H-5,3-(azenometheno)tripyrazolo[3,4-f:3′,4′-j:3″,4″-n][1,4]oxazacyclopentadecin-14-yl]ethan-1-ol], for which the IC50 in assay [2] was 36.2 nM; in [3], 63.9 nM; in assay [4], 146 nM; in [5], 59 nM; in assay [6], 6.89 nM; in assay [7], 39.8 nM. In addition, the concentration for half-maximal inhibition (IC50) turned out to be 13.9 nM in [8] and 50.5 nM in assay [9].
Regarding `CCN(C)c1nn([C@@H](C)CO)c2c1/C=C/c1n[nH]c3cnc(cc13)-c1c(C)nn(C)c1O[C@@H](C)CN(C)C2` [Ex. 105, (2S)-2-[(10S,17E)-16-[ethyl(methyl)amino]-6,8,10,12-tetramethyl-2,8,10,11,12,13-hexahydro-14H-5,3-(azenometheno)tripyrazolo[3,4-f:3′,4′-j:4″,3″-n][1,4]oxazacyclopentadecin-14-yl]propan-1-ol], the half-maximal inhibitory concentration (IC50) in assay [2] was 147 nM; in [3] it was 700 nM; in assay [4], 365 nM; in assay [5] it was 209 nM; in assay [6], 15.5 nM; in assay [7], 319 nM. The IC50 was 52.1 nM in [8] and 274 nM in [9].
Consider `C=CC(=O)N1Cc2c(c(OCC)nn2[C@@H](C)CO)/C=C/c2n[nH]c3cnc(cc23)-c2c(C)nn(C)c2O[C@@H](C)C1` [Ex. 115, 1-[(10S,17E)-16-ethoxy-14-[(2S)-1-hydroxypropan-2-yl]-6,8,10-trimethyl-2,8,10,11,13,14-hexahydro-12H-5,3-(azenometheno)tripyrazolo[3,4-f:3′,4′-j:4″,3″-n][1,4]oxazacyclopentadecin-12-yl]prop-2-en-1-one], for which the IC50 in assay [1] was determined as 6.13 nM; in assay [2] it was 31.9 nM; in [3], 3.05 nM; in assay [5] it was 3.35 nM; in assay [6], 9.04 nM; in assay [8], 1.47 nM.
